# Data from patent US8530181B2, “Method of screening for compounds which affect the cleavage of EphA7 byγ-secretase” (Eisai R&D Management Co., Ltd., priority 2007, dated 2013).
# Molecular target: T1, γ-secretase (Homo sapiens, UniProt P49768)
# T1 construct: 293/EBNA-1 cell strain (Invitrogen) was cultured in 10% FBS (Hyclone)/DMEM (Invitrogen); host or cells: 293/EBNA-1 (HEK293) cells; only the substrate rat EphA7-HA was transfected
# Assay: Analysis of EphA7 processing in EphA7-transfected 293/EBNA-1 cell strain (Western blotting with anti-HA antibody)
# Format: cell-based
# Parameters: dose or concentration left out as unconfirmed
# Settings: HEK293 (293/EBNA-1) cells expressing rat EphA7-HA; Compound E added to culture broth, cultured one day; compared with cells without Compound E
# Method: Whether or not EphA7 is a substrate for γ-secretase was evaluated using HEK293 cells expressing a gene encoding EphA7 with an HA tag added to its C-terminus, in the presence of a γ-secretase inhibitor. As the γ-secretase inhibitor, (2S)-2-{[(3,5-difluorophenyl)acetyl]amino}-N-[(3S)-1-methyl-2-oxo-5-phenyl-2,3-dihydro-1H-1,4-benzodiazepin-3-yl]propanamide (hereinafter, sometimes referred to as “Compound E”) (Alexis Biochemicals) was used.
# 293/EBNA-1 cell strain (Invitrogen) was cultured in 10% FBS (Hyclone)/DMEM (Invitrogen) under 5% CO2 at 37° C., followed by transfection thereinto of the gene encoding rat EphA7 with an HA tag added to its C-terminus using Lipofectamine 2000 (Invitrogen). After one day culture under the same conditions, […] Compound E (γ-secretase inhibitor; Alexis Biochemicals) was added to the culture broth. Cells were cultured for another day under the same conditions. Then, the transfected HEK293 cells were collected with PBS (Sigma) and sonicated with a sonicator (Taitec VP-5S) to disrupt cells. Then, the quantity of protein was determined with Protein Assay Kit (BioRad). […]
# First, the substrate for γ-secretase is cut off its extracellular domain by other protease. […] Since reactions proceed very quickly from the first cleavage to the final degradation by proteasome, the substrate is […] when detected by Western blotting.
smiles,measurement,value
"C[C@H](NC(=O)Cc1cc(F)cc(F)c1)C(=O)N[C@H]1N=C(c2ccccc2)c2ccccc2N(C)C1=O [Compound E, (2S)-2-{[(3,5-difluorophenyl)acetyl]amino}-N-[(3S)-1-methyl-2-oxo-5-phenyl-2,3-dihydro-1H-1,4-benzodiazepin-3-yl]propanamide]","Accumulation of EphA7 C-terminal fragment (CTF, band around 50 kDa) on Western blot, indicating inhibited cleavage of EphA7 by γ-secretase",CTF was accumulated
